We go through 16 compounds from PMC12707362, “Targeting Aurora Kinases as Essential Cell‐Cycle Regulators to Deliver Multi‐Stage Antimalarials Against Plasmodium Falciparum” (Angewandte Chemie (International Ed. in English), 2025).

Counter-ions that a name gives are not always drawn. Like-named read-outs stand apart in the source and are kept apart here.

The subject of data set [1] is P. falciparum drug-sensitive NF54 (PfNF54) asexual intra-erythrocytic parasites. Description: SYBR Green I proliferation assay, PfNF54 asexual blood stages. The data set is classed as cell-based, Plasmodium falciparum. Conditions: read-out: Pf NF54 ABS IC50. From the text:
Figure 1 Activity profile of Aur class anticancer inhibitors across the life cycle of Plasmodium falciparum parasites. a) Activity (IC50) of inhibitors (grouped based on specificity against human Aur) against P.falciparum drug‐sensitive (PfNF54) asexual intra‐erythrocytic parasites as measured with SYBR Green I fluorescence as an indicator of viability and proliferation. […] ABS, asexual blood stages of the parasite; HsAur, human Aur.
P. falciparum drug sensitive NF54 (PfNF54) and drug-resistant Dd2 (PfDd2, chloroquine, pyrimethamine and mefloquine resistant) strains were cultured in vitro in human O^+/A^+ erythrocytes (5% hematocrit) in complete medium at 2–5% parasitemia, 37 °C, shaking at 60 rpm under hypoxic conditions (90% N2, 5% O2 and 5% CO2). […] Gametocytogenesis was followed with daily media changes (including glucose) and ABS parasites removed with 50 mM N-acetylglucosamine (day 1–4 for stage II/III; days 3–7 for stage IV/V).
All inhibitors were dissolved in dimethyl sulfoxide (DMSO). […] Ring-stage ABS parasites (1% parasitemia, 1% hematocrit) were treated with compounds for 96 h at 37 °C with chloroquine disulphate (0.5 μM) as positive drug control. […] Luciferase activity was determined using a non-lysing D-luciferin substrate (1 mM in 0.1 M citrate buffer, pH 5.5, 100 μL) and bioluminescence was detected with a GloMax® - Multi Detection System with Instinct® software.

The subject of data set [2] is multidrug-resistant PfDd2 ABS parasites. Description: SYBR Green I proliferation assay, PfDd2 asexual blood stages. In kind it is cell-based. The following applies: Plasmodium falciparum, DD2, read-out: Pf Dd2 ABS IC50. Here is the method:
(§1) (B) Antiplasmodial activity of nine anticancer aurora kinase inhibitors (selected based on their PfNF54 ABS activity) against P. falciparum multidrug-resistant ABS parasites (PfDd2 and PfK1). (C) Kinobead competitive inhibition data.
(§2) P. falciparum drug sensitive NF54 (PfNF54) and drug-resistant Dd2 (PfDd2, chloroquine, pyrimethamine and mefloquine resistant) strains were cultured in vitro in human O^+/A^+ erythrocytes (5% hematocrit) in complete medium at 2–5% parasitemia, 37 °C, shaking at 60 rpm under hypoxic conditions (90% N2, 5% O2 and 5% CO2). Immature and mature gametocytes were produced from P. falciparum 3D7elo1-pfs16-CBG99 (kind gift from Pietro Alano, ISS, Italy) ^[1] as described^[2,3] by simultaneously applying nutrient starvation and decreasing hematocrit to induce >97% ring-stage ABS parasites (0.5% parasitemia, 6% hematocrit). Gametocytogenesis was followed with daily media changes (including glucose) and ABS parasites removed with 50 mM N-acetylglucosamine (day 1–4 for stage II/III; days 3–7 for stage IV/V).
(§3) All inhibitors were dissolved in dimethyl sulfoxide (DMSO). Antiplasmodium activity of selected anti-cancer inhibitors was determined on P. falciparum NF54 and Dd2 strains, measuring SYBR Green I fluorescence (485 nm excitation, 538 nm emission) as an indicator of proliferation^[4]. Ring-stage ABS parasites (1% parasitemia, 1% hematocrit) were treated with compounds for 96 h at 37 °C with chloroquine disulphate (0.5 μM) as positive drug control. The activity of the inhibitors was tested against immature (>95% stage II/III) and late-stage (>90% stage IV/V) gametocytes using a luciferase reporter assay on 3D7elo1-pfs16-CBG99 ^[1]. […] Luciferase activity was determined using a non-lysing D-luciferin substrate (1 mM in 0.1 M citrate buffer, pH 5.5, 100 μL) and bioluminescence was detected with a GloMax® - Multi Detection System with Instinct® software.

In data set [3] the test system is immature (stage II/III) gametocytes, P. falciparum 3D7elo1-pfs16-CBG99. Kind of data set: Luciferase reporter assay, immature gametocytes. In kind it is cell-based, Plasmodium falciparum. Conditions: 48 h; for inhibition at 5 µM: Plasmodium falciparum, read-out: Pf Early stage gametocyte %inhibition @ 5 µM. Here is the method:
as §2, §3
In general terms: A reporter such as luciferase makes a cellular process visible.

For data set [4], the system named is late-stage (stage IV/V) gametocytes, P. falciparum 3D7elo1-pfs16-CBG99. Kind of data set: Luciferase reporter assay, late-stage gametocytes. The data set is classed as cell-based. Conditions: Plasmodium falciparum, 48 h, read-out: Pf Late stage gametocyte %inhibition @ 5 µM. Here is the method: as §2, §3
The nature of data set [5]: Cytotoxicity counter-screening (MTT), HepG2. The following applies: human, HepG2 cells, HepG2 CC50, 48 h, MTT. Here is the method:
(§4) HepG2 and CHO cells were maintained at 37 °C, under a humidified atmosphere of 5% CO2, in DMEM high glucose media (Gibco) supplemented with 10% heat-inactivated FBS and 1% (v/v) Penicillin-Streptomycin antibiotics. […] The supernatant was discarded, and the cell pellet was resuspended in 1 mL DMEM media for cell counting by Trypan Blue. To determine the toxicity, cells were resuspended and seeded at a concentration of 1x10^4 cells/well in a 96-well plate and incubated for 24 h^[9,10]. Cells were treated in duplicate with a 10-fold serial dilution starting at 100 ug/mL of inhibitor in new media. After 48 h incubation, the viable cells were measured using the MTT tetrazolium reduction assay, where sterile 25 µL of a 5 mg/mL MTT was added to each well and incubated for 4 h before the […] formazan crystals were dissolved with 100 µL DMSO (Merck) per well. The absorbance, a measure of intracellular reduction of MTT, was measured at 540 nm (Multiskan GO). Emetine (50 µM) was included as a positive drug control, and the background was subtracted from all data before being normalised to the untreated^[9,10].

The subject of data set [6] is hepatocellular carcinoma (HepG2) cells. Description: Cytotoxicity counter-screening (MTT), HepG2. Conditions: HepG2 CC50/PfNF54 IC50. Here is the method: as §4
On the technique in general: A counterscreen serves to expose hits that act by an unwanted route or on another target.

A short description of data set [7]: Cytotoxicity counter-screening (MTT), CHO. Conditions: Chinese hamster, CHO cells. Here is the method:
as §4

The test system of data set [8] is Chinese Hamster Ovary (CHO) cells. Description: Cytotoxicity counter-screening (MTT), CHO. Conditions: CHO CC50/PfNF54 IC50. Here is the method: as §4
In data set [9] the test system is P. berghei liver schizonts in HepG2-A16-CD81EGFP cells. Description: P. berghei (PbLuc) liver stage assay. Conditions: Plasmodium berghei; 48 h, PbLuc; read-out: Pb liver stage IC50. In kind it is cell-based.
Excerpt: as §1
Plasmodium berghei (Pb) sporozoites were obtained by dissecting the salivary glands of infected Anopheles stephensi mosquitoes. These were provided by The SporoCore, at the University of Georgia, GA, USA (SporoCore.uga.edu). The parasites utilised a GFP-Lucama1-eef1 reporter line^[5]. These engineered parasites, termed Pb-Luc, were used to infect HepG2-A16-CD81EGFP cells. HepG2-A16-CD81EGFP cells stably transformed to express a GFP-CD81 fusion protein^[6] were cultured at 37 °C in 5% CO2 in DMEM (Invitrogen, Carlsbad, USA) supplemented with 10% FBS (Corning, NY, USA), 1X Pen/Strep/Glu (Thermo Fisher Scientific, USA). Compounds were prepared as 10 mM solutions in DMSO, and 10 nL of each (resulting in a final DMSO concentration of 0.1% per well) was transferred into assay plates using an ECHO 650 (Beckman). Concentrations ranged from 10 µM to 0.5 nM. Atovaquone (0.1 µM) served as a positive control, while 0.1% DMSO was used as a negative control. Liver stage (PbLuc) screening has been previously described^[7]. Human hepatic cells (3 × 10^3; HepG2-A16-CD81-EGFP) suspended in 5 µL of DMEM medium ([…], supplemented with 5% FBS, 5× Pen/Strep/Glu) were seeded in 1536-well plates (Greiner BioOne) using the MultiFlo FX (Agilent) 20 h before infection. PbLuc sporozoites, isolated from the salivary glands of A. stephensi mosquitoes, were filtered twice through a 20 µm nylon pore cell strainer. The sporozoites were resuspended in screening media, counted with a hemocytometer, and diluted to a final concentration of 200 sporozoites per µL. Each well received 1,000 sporozoites in 5 µL, dispensed via the GNF Dispenser II (GNF Systems). […] Luminescence was measured immediately with the Pherastar FSX reader (BMG Labtech). Luminescence values were normalized using the positive and negative controls. EC50 values were calculated with CDD Vault (Burlingame, CA). […]

Data set [10] has as its system HepG2 and CHO cell lines versus PfNF54. Kind of data set: Selectivity of parasite versus mammalian cell lines. The data set is classed as cell-based. The following applies: mammalian cell line (CHO/HepG2) CC50 versus PfNF54 IC50; cell line not specified.
Experimental: HepG2 and CHO cells were maintained at 37 °C, under a humidified atmosphere of 5% CO2, in DMEM high glucose media (Gibco) supplemented with 10% heat-inactivated FBS and 1% (v/v) Penicillin-Streptomycin antibiotics. […] The supernatant was discarded, and the cell pellet was resuspended in 1 mL DMEM media for cell counting by Trypan Blue. To determine the toxicity, cells were resuspended and seeded at a concentration of 1x10^4 cells/well in a 96-well plate and incubated for 24 h^[9,10]. Cells were treated in duplicate with a 10-fold serial dilution starting at 100 ug/mL of inhibitor in new media. After 48 h incubation, the viable cells were measured using the MTT tetrazolium reduction assay, where sterile 25 µL of a 5 mg/mL MTT was added to each well and incubated for 4 h before the water-soluble formazan crystals were dissolved with 100 µL DMSO (Merck) per well. The absorbance, a measure of intracellular reduction of MTT, was measured at 540 nm (Multiskan GO). Emetine (50 µM) was included as a positive drug control, and the background was subtracted from all data before being normalised to the untreated^[9,10].
[11] abbreviates: Plasmodium falciparum, NF54, 96 h, ring-stage ABS, 96 h, SYBR Green I.
The mark [12] stands for this setting: ring-stage ABS, 96 h, SYBR Green I.

One may read the IC50 as the concentration that inhibits the measured activity by half. As for `COc1cc(Nc2ncc3c(n2)-c2ccc(Cl)cc2C(c2c(F)cccc2OC)=NC3)ccc1C(=O)O` [Alisertib, Alisertib (MLN8237)], the IC50 in [1] (setting [11]) is at least 5000 nM.
For the compound `Cc1cc(Nc2nn(-c3ccccc3)c(=O)c3ccccc23)n[nH]1` [PH-p, Phthalazinone pyrazole], the half-maximal inhibitory concentration (IC50) in data set [1] (setting [12]) came out at 2720 nM.
In the case of `Cc1nn(C)cc1-c1nc2c(N3CCN(Cc4ccc(Cl)cc4)CC3)c(Cl)cnc2[nH]1` [CCT-736, CCT-241736], the IC50 in [1] (setting [11]) came to 3240 nM.
Turning to `O=C(O)[C@]1(Cc2cccc(Nc3nccs3)n2)CC[C@@H](Oc2cccc(Cl)c2F)CC1` [MK-5108], the IC50 in data set [1] (Plasmodium falciparum, NF54, 96 h) is at least 5000 nM.
As for `Nc1nc(Nc2ccc(S(N)(=O)=O)cc2)nn1C(=O)c1c(F)cccc1F` [JNJ, JNJ-7706621], the IC50 in [1] (setting [11]) stood at 3310 ± 813 nM.
On to `O=C(O)c1ccc(Nc2ncc3c(n2)-c2ccc(Cl)cc2C(c2c(F)cccc2F)=NC3)cc1` [MLN8054], for which the IC50 in data set [1] (setting [11]) is at least 5000 nM.
The same measure, in the same setting: the value for `Cc1nc(N)sc1-c1ccnc(Nc2ccc(N3CCOCC3)cc2)n1` [CYC-116] was 3090 nM.
As usually defined, the inhibition is the change of the read-out against control, counted positive when it falls. Broadly, the CC50 is the concentration at which the toxic effect on the cells reaches its halfway point. Take `CO[C@@H](C(=O)N1Cc2n[nH]c(NC(=O)c3ccc(N4CCN(C)CC4)cc3)c2C1)c1ccccc1` [Danusertib]: the values for the IC50 in data set [1] (setting [11]), in data set [2] and in data set [9] were 1410 nM, 1300 nM and 6.22 µM, respectively. Moreover, the results for the inhibition at 5 µM in data set [3] and in data set [4] were 9.5% and 2.6%, respectively. Moreover, the figures for the CC50 at 48 h in data set [5] and in [7] were 35.1 µM and 33.2 µM, respectively. The “Selectivity index (SI) HepG2” value in data set [6] is 24.8. For the same compound, the “Selectivity index (SI) CHO” value in data set [8] was 23.50.
On to `CN(C)c1ccc(-c2nc3ncc(Cl)c(N4CCN(CC(=O)Nc5nccs5)CC4)c3[nH]2)cc1` [CCT-202, CCT-129202], for which the IC50 in data set [1] (setting [12]) was determined as 2410 nM.
For the compound `CC(=O)NCC(=O)N1[C@@H]2CC[C@H]1c1ccc(Nc3ncc(C(F)(F)F)c(NC4CCC4)n3)cc12` [PF-35, PF-03814735], the 50% inhibitory concentration (IC50) in [1] (setting [12]) was found to be 2120 ± 1560 nM.
On to `CCn1cc(-c2ccnc3[nH]c(-c4cccc(CN(C)C)c4)cc23)c(-c2ccc(NC(=O)N(C)C)cc2)n1` [GSK-916, GSK-1070916], for which the IC50 in data set [1] (setting [11]) amounted to 1180 nM; in data set [2], 404 nM. In addition, the “Pf Early stage gametocyte %inhibition @ 5 µM” value in data set [3] was 67,1 ± 7,0%. Further, the inhibition at 5 µM in data set [3] was around 70%; in data set [4], 31.5%. The results for the CC50 at 48 h in data set [5] and in [7] were 13.1 µM and 5.3 µM, respectively. Moreover, in [6], the “Selectivity index (SI) HepG2” value was determined as 11.03. Besides, the “Selectivity index (SI) CHO” value in data set [8] is listed as 4.47. In addition, the “selectivity index (SI) towards the parasite” value in data set [10] is below 10.
For the compound `CCc1cccc(CC)c1NC(=O)N1Cc2n[nH]c(NC(=O)c3ccc(N4CCN(C)CC4)cc3)c2C1` [PHA-32, PHA-680632], the IC50 in [1] (setting [11]) was determined as 3130 nM.
`COc1cc2ncnc(Nc3ccc(NC(=O)c4ccccc4)cc3)c2cc1OC` [Aki II, Aurora Kinase Inhibitor II]: the half-inhibitory concentration (IC50) in [1] (setting [12]) was determined as 2150 nM.
`Cc1csc(-c2nnc(Nc3ccc(Oc4ncccc4-c4ccnc(N)n4)cc3)c3ccccc23)c1` [AMG 900]: in [1] (setting [11]), the 50% inhibitory concentration (IC50) was at least 5000 nM.
On to `Cc1cc(CN2CCN(c3c(Br)cnc4nc(-c5ccc(N6CCN(C)CC6)cc5)[nH]c34)CC2)no1` [CCT-690, CCT-137690], for which the IC50 in [1] (setting [12]) worked out at 1660 nM.
For the compound `O=C(Nc1cccc(Cl)c1)Nc1ncc(CCNc2ncnc3ccsc23)s1` [SNS-314, SNS-314 Mesylate], the IC50 in data set [1] (setting [11]) is 1440 nM.
